One assay has as its system T1, A. thaliana DHDPS.
T1 construct: AtDHDPS|10|0.00008; no borders, domain or tags given
Description: DHDPS-DHDPR coupled assay, dose response inhibitor assay. In kind it is biochemical, Arabidopsis thaliana. The procedure: DHDPS enzyme activity was determined using the coupled assay in a Cary 4000 UV/Vis spectrophotometer at 340 nm in 1 cm acrylic cuvettes. A master mix was prepared for each reaction as per Table 1. Reaction mixtures containing enzymes, pyruvate, buffer and NADPH were incubated at 30° C. for 12 mins before the addition of ASA to initiate the reaction. The oxidation of NADPH to NADP^+ was then monitored at 340 nm at 30° C. as a function of time. The initial rate (ΔA340·min^−1) was calculated from the slope of the linear portion of the A340 versus time profile. All experiments were carried out in triplicate. The enzyme kinetic parameters, including KM values, were determined using the Michaelis-Menten equation (Equation 1). Unless otherwise stated, all kinetic data were fitted using the built-in equations in GraphPad Prism.
To determine/C50 values for the inhibitors, A. thaliana DHDPS enzyme activity was measured using the coupled assay (detailed above) in the presence of increasing concentrations of inhibitor. The initial rate was then plotted as a function of the log 10 of the inhibitor concentration and the/C50 determined according to Equation 2.

The next assay relates to A. thaliana seedlings. Description: In planta seedling development and root length on GM/MS media. In kind it is in vivo. The settings on record: for Normalised root / Root Length: individual plants 1-20; for seedling development: concentrations 125 μM and higher; for development and growth of A. thaliana (leaves): highest concentrations tested. The procedure:
Gamborg modified/Murashige Skoog (GM/MS) media and soil were prepared as according to Table 6.
A. thaliana seeds were sterilised including a 15 min wash step in 10% (v/v) commercial bleach without the addition of detergents. All plants were grown in a controlled environment room (CER) at 22±5° C. with 16 hrs: 8 hrs light: dark, 50-60% humidity under cool-white fluorescent light. Plants grown on soil were regularly watered and relocated within the CER.
Basta was employed as a positive control at a final recommended concentration of 10 μg/mL (50 μM). Negative controls included 0% (v/v) DMSO (H2O) and 1% (v/v) DMSO (vehicle). Media was poured into 100 mL plates and allowed to set before adding 20 sterilised seeds per plate. Seeds were then stratified at 4° C. for 72 hrs in a dark room prior to relocation into a CER.
The resulting growth plates were monitored daily and allowed to grow in an upright position for up to 14 days post stratification to determine the average root length using ImageJ analysis. Experiments were carried out in triplicates. Results were statistically validated using t-tests employing GraphPad Prism.

The subject of assay [1] is Gram-positive and Gram-negative bacterial species. Kind of assay: Broth microdilution MIC, panel summary. In kind it is cell-based. The settings on record: read-out: MIC values. The procedure: Assays were carried out by a broth microdilution method using a 96-well plate according to guidelines defined by the European Committee on Antimicrobial Susceptibility Testing as described here. Overnight cultures of strains were grown in tryptic soy broth (TSB) at 37° C. The overnight cultures were diluted to a concentration of 1×10^6 bacteria/ml (OD600=0.01) in TSB media. To each well on 96 well plates, 100 μl of bacterially infected media at a concentration of 1×10^6/ml and compounds at various concentrations were added. An uninfected control (i.e. no bacteria) was also included. The plates were incubated at 37° C. wrapped in parafilm for 20 hrs. The growth was assessed by measuring the absorbance at 600 nm. The minimum inhibitory concentration (MIC) was determined to be the lowest concentration of compound that inhibits visible bacterial growth.
For orientation: Dilution methods test growth across graded concentrations, often in twofold steps.

Assay [2] deals with Acinetobacter baumannii 17978. Kind of assay: Broth microdilution MIC. It counts as cell-based. The method in brief:
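Compounds at a range of concentrations meet bacteria (1×10^6/ml in TSB) for 20 hrs at 37° C. Optical density at 600 nm gauges growth, and the minimum inhibitory concentration is the lowest dose blocking visible growth, per EUCAST.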

The mark [3] stands for this setting: Acinetobacter baumannii 17978, replicate 1, read-out: MIC #1.
[4] abbreviates: Acinetobacter baumannii 17978, replicate 2, read-out: MIC #2.
Where [5] appears, read: Acinetobacter baumannii 17978, replicate 3, read-out: MIC #3.

Several values for one entry are separate records, joined by “and”; a condition that tells them apart may be missing. Equal entries are not always repeated. Where two headings read alike, the source gives them in different places.

As a reminder, the IC50 is the concentration at which inhibition is half-maximal. Lower therefore signals greater potency. The term MIC denotes the lowest concentration found to suppress growth.

As for `COc1ccccc1/C=C1\SC(=O)N(CC(=O)O)C1=O` [Compound 3, (Z)-2-(5-(2-Methoxybenzylidene)-2,4-dioxothiazolidin-3-yl)acetic Acid], half-maximal inhibition in the assay on A. thaliana DHDPS (IC50) was put at 70.5 µM. The Normalised root in the assay on A. thaliana seedlings (15.6 μM in GM/MS media) was 126.8 and 79.33 and 8.429 and 111.7 and 109.2 and 119.2 and 125.6 and 130.3 and 102.2 and 104.4 and 74.72 and 87.31 and 77.74 and 72.45 and 127.9 and 91.64 and 101.7 and 3.856 and 113.4 and 59.09; in the assay on A. thaliana seedlings (31.3 μM in GM/MS media) it was 70.03 and 65.16 and 32.16 and 67.4 and 20.77 and 47.64; in the assay on A. thaliana seedlings (62.5 μM in GM/MS media) it was 64.32 and 82.41 and 69.91 and 82.88 and 64.47 and 34.82 and 79.21 and 80.49 and 78.28 and 63.37 and 57.96 and 45.82 and 15.99 and 51.14 and 20.03 and 32.64; in the assay with A. thaliana seedlings (125 μM in GM/MS media) it was 33.06 and 69.91 and 19.58 and 22.27 and 3.796 and 61.99 and 8.578 and 23.43 and 41.58 and 46.33 and 18.05 and 12.76 and 7.532 and 1.225 and 12.64 and 3.945 and 21.19 and 14.91 and 8.907 and 2.032; with A. thaliana seedlings (250 μM in GM/MS media), 18.35 and 35.03 and 19.34 and 7.741 and 3.318 and 12.7 and 3.049 and 7.532 and 27.32 and 17.58 and 13.9 and 3.916 and 9.923 and 8.07 and 5.619 and 3.497 and 4.513 and 2.66 and 3.378 and 3.676; in the assay on A. thaliana seedlings (500 μM in GM/MS media) it was 2.75 and 4.065 and 1.674 (2×) and 1.644 and 1.315 and 2.331 (2×) and 0.7472 and 2.272 and 2.062 and 1.076 and 1.435 and 2.63 and 2.092 and 1.584 and 5.021 and 1.375. Also, the “Root Length” value in the assay on A. thaliana seedlings (15.6 μM in GM/MS media) is 4.242 cm and 2.654 cm and 0.282 cm and 3.737 cm and 3.653 cm and 3.988 cm and 4.202 cm and 4.361 cm and 3.42 cm and 3.494 cm and 2.5 cm and 2.921 cm and 2.601 cm and 2.424 cm and 4.28 cm and 3.066 cm and 3.403 cm and 0.129 cm and 3.794 cm and 1.977 cm; in the assay with A. thaliana seedlings (31.3 μM in GM/MS media), 2.343 cm and 2.18 cm and 1.076 cm and 2.255 cm and 0.695 cm and 1.594 cm; with A. thaliana seedlings (62.5 μM in GM/MS media) it was 2.152 cm and 2.757 cm and 2.339 cm and 2.773 cm and 2.157 cm and 1.165 cm and 2.65 cm and 2.693 cm and 2.619 cm and 2.12 cm and 1.939 cm and 1.533 cm and 0.535 cm and 1.711 cm and 0.67 cm and 1.092 cm; in the assay on A. thaliana seedlings (125 μM in GM/MS media), 1.106 cm and 2.339 cm and 0.655 cm and 0.745 cm and 0.127 cm and 2.074 cm and 0.287 cm and 0.784 cm and 1.391 cm and 1.55 cm and 0.604 cm and 0.427 cm and 0.252 cm and 0.041 cm and 0.423 cm and 0.132 cm and 0.709 cm and 0.499 cm and 0.298 cm and 0.068 cm; in the assay on A. thaliana seedlings (250 μM in GM/MS media), 0.614 cm and 1.172 cm and 0.647 cm and 0.259 cm and 0.111 cm and 0.425 cm and 0.102 cm and 0.252 cm and 0.914 cm and 0.588 cm and 0.465 cm and 0.131 cm and 0.332 cm and 0.27 cm and 0.188 cm and 0.117 cm and 0.151 cm and 0.089 cm and 0.113 cm and 0.123 cm; with A. thaliana seedlings (500 μM in GM/MS media), 0.092 cm and 0.136 cm and 0.056 cm (2×) and 0.055 cm and 0.044 cm and 0.078 cm (2×) and 0.025 cm and 0.076 cm and 0.069 cm and 0.036 cm and 0.048 cm and 0.088 cm and 0.07 cm and 0.053 cm and 0.168 cm and 0.046 cm. Further, the seedling development result in the assay with A. thaliana seedlings was “did not develop past the point of hypocotyl formation”. In the assay on A. thaliana seedlings, the “development and growth of A. thaliana (leaves)” value is “lack of any chlorophyll containing leaves”. Moreover, the MIC in assay [1], in assay [2] (setting [3]), in assay [2] (setting [4]) and in assay [2] (setting [5]) was greater than 64 µg/mL throughout.
In the assay with A. thaliana DHDPS, `COc1ccc(/C=C2\SC(=O)N(CC(=O)O)C2=O)cc1` [Compound 5, (Z)-2-(5-(4-Methoxybenzylidene)-2,4-dioxothiazolidin-3-yl)acetic Acid] registered an IC50 of 46.9 µM. Also, the Normalised root is 82.76 and 96.69 and 73.74 and 70.27 and 71.53 and 139.9 and 115.3 and 146.5 and 77.53 and 88.03 and 73.65 and 65.55 and 78.22 and 74.81 and 104.1 and 65.25 and 3.437 and 81.45 and 65.88 and 72.75 with A. thaliana seedlings (15.6 μM in GM/MS media); 88.38 and 1.793 and 71.56 and 59.48 and 79.48 and 5.948 with A. thaliana seedlings (31.3 μM in GM/MS media); 7.413 and 36.02 and 1.315 and 72.21 and 57.81 and 43.67 and 43.88 and 58.91 and 47.85 and 54.64 and 35.81 and 30.88 and 2.78 and 15.18 and 44.24 and 60.59 with A. thaliana seedlings (62.5 μM in GM/MS media); 17.75 and 24.42 and 18.71 and 21.94 and 21.31 and 20.59 and 21.58 and 22.78 and 6.905 and 15.15 and 6.636 and 15.69 and 16.44 (2×) and 2.062 and 14.11 and 1.016 and 19.97 and 13.33 and 0.8668 with A. thaliana seedlings (125 μM in GM/MS media); 3.019 and 3.856 and 2.63 and 2.989 (2×) and 4.693 and 3.049 and 0.3886 and 5.021 and 2.541 and 2.451 and 12.37 and 5.051 and 4.812 and 3.497 and 2.361 and 1.225 and 2.272 and 0.8668 and 0.4185 with A. thaliana seedlings (250 μM in GM/MS media); 0.807 and 0.9565 (3×) and 0.5978 and 2.72 and 0.4185 (2×) and 0.7472 and 0.9266 and 0.2391 and 0.3587 and 0.8668 and 1.375 and 1.315 and 3.348 and 1.853 and 0.9864 in the assay on A. thaliana seedlings (500 μM in GM/MS media). The “Root Length” value with A. thaliana seedlings (15.6 μM in GM/MS media) was 2.769 cm and 3.235 cm and 2.467 cm and 2.351 cm and 2.393 cm and 4.682 cm and 3.856 cm and 4.902 cm and 2.594 cm and 2.945 cm and 2.464 cm and 2.193 cm and 2.617 cm and 2.503 cm and 3.482 cm and 2.183 cm and 0.115 cm and 2.725 cm and 2.204 cm and 2.434 cm; with A. thaliana seedlings (31.3 μM in GM/MS media), 2.957 cm and 0.06 cm and 2.394 cm and 1.99 cm and 2.659 cm and 0.199 cm; in the assay on A. thaliana seedlings (62.5 μM in GM/MS media), 0.248 cm and 1.205 cm and 0.044 cm and 2.416 cm and 1.934 cm and 1.461 cm and 1.468 cm and 1.971 cm and 1.601 cm and 1.828 cm and 1.198 cm and 1.033 cm and 0.093 cm and 0.508 cm and 1.48 cm and 2.027 cm; in the assay with A. thaliana seedlings (125 μM in GM/MS media) it was 0.594 cm and 0.817 cm and 0.626 cm and 0.734 cm and 0.713 cm and 0.689 cm and 0.722 cm and 0.762 cm and 0.231 cm and 0.507 cm and 0.222 cm and 0.525 cm and 0.55 cm (2×) and 0.069 cm and 0.472 cm and 0.034 cm and 0.668 cm and 0.446 cm and 0.029 cm; in the assay on A. thaliana seedlings (250 μM in GM/MS media), 0.101 cm and 0.129 cm and 0.088 cm and 0.1 cm (2×) and 0.157 cm and 0.102 cm and 0.013 cm and 0.168 cm and 0.085 cm and 0.082 cm and 0.414 cm and 0.169 cm and 0.161 cm and 0.117 cm and 0.079 cm and 0.041 cm and 0.076 cm and 0.029 cm and 0.014 cm; with A. thaliana seedlings (500 μM in GM/MS media), 0.027 cm and 0.032 cm (3×) and 0.02 cm and 0.091 cm and 0.014 cm (2×) and 0.025 cm and 0.031 cm and 0.008 cm and 0.012 cm and 0.029 cm and 0.046 cm and 0.044 cm and 0.112 cm and 0.062 cm and 0.033 cm. Also, in the assay with A. thaliana seedlings, the seedling development entry is recorded as “did not develop past the point of hypocotyl formation”. Moreover, in the assay with A. thaliana seedlings, the “development and growth of A. thaliana (leaves)” value was “lack of any chlorophyll containing leaves”. The MIC in assay [2] (setting [3]), in assay [2] (setting [4]) and in assay [2] (setting [5]) was greater than 64 µg/mL throughout.

The values above are taken from US20200068890A1 (Person to Whom the Inventor is Obligated to Assign, priority 2017, published 2020).
